In a melting point compilation (Tetko et al.; mined from patent text by program, amines drawn as free bases though some values may be those of a salt) one finds melting point data, which are given here for 37 molecules.

Molecule `COC1(c2ccc(Sc3ccc(C(=O)c4ccc(C(F)(F)F)cc4)cc3)s2)CCOCC1` had a melting point of 86 to 87 °C.

The molecule `CCOC(=O)c1[nH]cnc1C(F)(F)F` showed a melting point of 184 to 186 °C.

`CC(C)(C)OC(=O)N1CC=C(c2ccc(N)c([N+](=O)[O-])c2)CC1` had a melting point of 111 to 112 °C.

Turning to `Oc1ccc(-c2cc(O)ccc2-c2cc3cc(O)ccc3o2)cc1`, the melting point lay within 238 to 239 °C.

For `CON=CC1=CCCN(C(=O)OCCc2ccc([N+](=O)[O-])cc2)C1`, the melting point lay within 93 to 94 °C.

`C=C(CCC)C(=O)c1ccc(OCCCC(=O)O)c(Cl)c1Cl` came in with a melting point of 85 to 87 °C.

Molecule `CCN(CC)CCn1nc2c3c(c(NCCNCCO)ccc31)Sc1c(OC)ccc(OC)c1-2` displayed a melting point of 119 to 123 °C.

For `CC(C)(Oc1ccc(OCCCCc2cc(-c3ccc(C(F)(F)F)cc3)no2)cc1)C(=O)O`, the melting point was in the range of 103 to 104 °C.

`CCOC(=O)CN(C)c1ccc(N=C=S)cc1` registered a melting point of 90 to 91 °C.

With `CCc1nc2cnc3ccccc3c2n1CCCCNS(C)(=O)=O`, the melting point fell in the range of 166 to 168 °C.

`CCOC(=O)c1cccc(Cc2c[nH]cn2)c1O`: the melting point stood at 133 °C.

`O=C(NCCBr)C1=C(C(=O)Nc2cc(OC3CCCC3)c(Cl)cc2F)CCCC1` showed a melting point of 140 to 142 °C.

As for `COc1cc(C(=O)O)cc(OC)c1OC(C)=O`, the melting point lay in the range of 181 to 183 °C.

On to `CC(C)NC(=O)NCCn1c(CO)nc2c(N)nc3ccccc3c21`, for which the melting point is greater than 240 °C.

For `CN1CCN(c2cc3c(cc2F)c(=O)c(C(=O)O)cn3C2CSC2)CC1`, the melting point was in the range of 231 to 237 °C.

For `c1cc2ncn(CCCCc3nnnn3C3CCCCC3)c2cn1`, the melting point is 133 to 135 °C.

In turn, `CC(Br)c1ncnc(Sc2ccc(Cl)cc2)c1F` (configuration not stated) showed a melting point of 86.2 to 87.5 °C.

Regarding `COC(=O)c1ccc(C2CNN=C2c2ccc(Cl)cc2)cc1` (configuration not stated), the melting point is 155 to 159 °C.

As to `CC(C)COC(=O)N[C@@H](Cc1ccc2ccccc2c1)C(=O)CSCc1ccco1`, the melting point was 84 to 87 °C.

`O=Cc1ccc(CO)cc1` had a melting point of 44.5 to 46 °C.

Turning to `Cc1oc(-c2ccccc2)nc1CCOc1ccc(C[C@H](NC(=O)C=Cc2cccc(Cl)c2)C(=O)O)cc1`, the melting point fell in the range of 204 to 206 °C.

Molecule `Cc1ccc2[nH]c3ccc(C)cc3c2c1` had a melting point of 218 to 221 °C.

For `CC(C)c1nc2cc(NC(=O)c3c(C(=O)N4CCC4)cnn3C)ccn2n1`, the melting point lay in the range of 226 to 227 °C.

In turn, `CCOC(=O)C(N=Nc1ccccc1C(=O)c1ccccn1)NC(=O)CCl` (configuration not stated) came in with a melting point of 160 to 162 °C.

`CCCCCN(CCCOC)C(=O)C(CCC(=O)O)CS(=O)(=O)c1ccc2ccccc2c1` (configuration not stated) yielded a melting point of 79 to 82 °C.

For `CCOC(=O)c1sc(Cl)nc1C(F)(F)F`, the melting point fell in the range of 58 to 59 °C.

Consider `Cc1oc2ccc(C3CC(=O)NC(=O)C3)cc2c1C`, for which the melting point was 183 to 185 °C.

`CC(=O)NC1C(Cl)OC(COC(C)=O)C(OC(C)=O)C1OC(C)=O` (configuration not stated) displayed a melting point of 143 °C.

Molecule `N#Cc1cccc2c1NC(=O)C2c1ncnc2c1cnn2C1CCCC1` (configuration not stated) had a melting point of 327 to 332 °C.

With `COc1ccc2c(c1OC)CCCC2(O)CN` (configuration not stated), the melting point lay within 138 to 140 °C.

Take `CCOC(=O)c1cnc2c(c(C)nn2-c2ccccn2)c1O`: the melting point was 166 to 169 °C.

Consider `COC(=O)CCc1ccc(NC(=O)OC(C)(C)C)cc1`, for which the melting point is 72 to 73.5 °C.

Regarding `COc1ccc(-c2csnn2)cc1C=O`, the melting point is 156 to 157 °C.

In turn, `COC(=O)NCc1cccc(-c2ccccc2)c1C` had a melting point of 91 to 94 °C.

`CC12CCCCC1CCC1C2CCC2(C)C(C(O)c3ccccc3)CCC12` (configuration not stated) gave a melting point of 129 to 130 °C.

For the molecule `CCCN(C(C)C)S(=O)(=O)NC(=O)c1cc(-n2c(=O)cc(C(F)(F)F)n(C)c2=S)c(F)cc1Cl`, the melting point was 74 to 75 °C.

Take `Cc1cc(C(=O)Nc2ccccc2O)cc(C)c1O`: the melting point was in the range of 142 to 145 °C.
